Measurements: patent US20100311714A1, “1H-IMIDAZO[4,5-c]QUINOLINONE COMPOUNDS” (priority 2009, published 2010)

Biological target: T1, PI3K gamma (Homo sapiens, UniProt P48736)
T1 construct: His tag (C); made in house; host or cells: construct from Roger Williams lab (pVL1393); baculovirus BV950; Tn5 (Trichoplusia ni) or TiniPro insect cells
Assay: PI3K gamma kinase assay (Kinase-Glo luminescence)
Assay type: biochemical
Conditions: read-out: PI3Kgamma/IC50
Method: In a more preferred assay, the kinase reaction is performed in a final volume of 10 μL per well of a low volume non binding CORNING, 384 well black plate (Cat. No. #3676). The final concentrations of ATP and phosphatidyl inositol (PI) in the assay are 1 μM and 10 μg/mL respectively. The reaction is started by the addition of ATP.
The components of the assay are added per well as follows:
50 nL test compounds in 90% DMSO per well, in columns 1-20, 8 concentrations (⅓ and 1/3.33 serial dilution step) in single. • Low control: […] of 90% DMSO in half the wells of columns 23-24 (0.45% in final). • High control: 50 nL of reference compound (e.g. compound of Example 7 in WO 2006/122806) in the other half of columns 23-24 (2.5 μM in final). • Standard: 50 nL of reference compound as just mentioned diluted as the test compounds in columns 21-22 • 20 mL ‘buffer’ are prepared per assay: • 200 μL of 1M TRIS HCl pH7.5 (10 mM in final) • 60 μL of 1M MgCl2 (3 mM in final) • 500 μL of 2M NaCl (50 mM in final) • 100 μL of 10% CHAPS (0.05% in final) • 200 μL of 100 mM DTT (1 mM in final) • 18.94 mL of nanopure water • 10 mL ‘PI’ are prepared per assay: • 200 μL of 1 mg/ml L-alpha-Phosphatidylinositol (Liver Bovine, Avanti Polar Lipids Cat. No. 840042C MW=909.12) prepared in 3% OctylGlucoside (10 μg/ml in final) • 9.8 mL of ‘buffer’ • 10 mL ‘ATP’ are prepared per assay: • 6.7 μL of 3 mM stock of ATP giving a final concentration of 1 μM per well • 10 mL of ‘buffer’ • 2.5 mL of each PI3K construct are prepared per assay in ‘PI’ with the following final concentration: • 10 nM PI3K alfa EMV B1075 • 25 nM beta EMV BV949 • 10 nM delta EMV BV1060 • 150 nM gamma EMV BV950 • 5 μL of ‘PI/PI3K’ are added per well. • 5 μl ‘ATP’ are added per well to start the reaction. • The plates are then incubated at room temperature for 60 minutes (alfa, beta, delta) or 120 minutes (gamma). • The reaction is terminated by the addition of 10 μL Kinase-Glo (Promega Cat. No. #6714). • The assay plates are read after 10 minutes in Synergy 2 reader (BioTek, Vermont USA) with an integration time of 100 milliseconds and sensitivity set to 191. • Output: The High control is around 60′000 counts and the Low control is 30′000 or lower • This luminescence assay gives a useful Z′ ratio between 0.4 and 0.7
PI3K gamma is purified in two chromatographic steps: immobilized metal affinity chromatography (IMAC) on a Ni Sepharose resin (GE Healthcare) and gel filtration (GFC) utilizing a Superdex 200 26/60 column (GE Healthcare). All buffers are chilled to 4° C. and lysis is performed chilled on ice. Column fractionation is performed rapidly at room temperature. Typically frozen insect cells are lysed in a hypertonic lysis buffer and applied to a prepared IMAC column. The resin is washed with 3-5 column volumes of lysis buffer, followed by 3-5 column volumes wash buffer containing 45 mM imidazole, and the target protein is then eluted with a buffer containing 250 mM imidazole. Fractions are analyzed by Coomassie stained SDS-PAGE gels, and fractions containing target protein are pooled and applied to a prepared GFC column. Fractions from the GFC column are analyzed by Coomassie stained SDS-PAGE gels, and fractions containing target protein are pooled. The final pool is dialyzed into a storage buffer containing 50% glycerol and stored at −20° C. The final pool is assayed for activity in the phosphoinostitol kinase assay.
IC50 is determined by a four parameter curve fitting routine that comes along with “excel fit”. A 4 Parameter logistic equation is used to calculate IC50 values (IDBS XLfit) of the percentage inhibition of each compound at 8 concentrations (usually 10, 3.0, 1.0, 0.3, 0.1, 0.030, 0.010 and 0.003 μM). Alternatively, IC50 values are calculated using idbsXLfit model 204, which is a 4 parameter logistic model.

T1 sequence (P48736 144-1102 limits assumed): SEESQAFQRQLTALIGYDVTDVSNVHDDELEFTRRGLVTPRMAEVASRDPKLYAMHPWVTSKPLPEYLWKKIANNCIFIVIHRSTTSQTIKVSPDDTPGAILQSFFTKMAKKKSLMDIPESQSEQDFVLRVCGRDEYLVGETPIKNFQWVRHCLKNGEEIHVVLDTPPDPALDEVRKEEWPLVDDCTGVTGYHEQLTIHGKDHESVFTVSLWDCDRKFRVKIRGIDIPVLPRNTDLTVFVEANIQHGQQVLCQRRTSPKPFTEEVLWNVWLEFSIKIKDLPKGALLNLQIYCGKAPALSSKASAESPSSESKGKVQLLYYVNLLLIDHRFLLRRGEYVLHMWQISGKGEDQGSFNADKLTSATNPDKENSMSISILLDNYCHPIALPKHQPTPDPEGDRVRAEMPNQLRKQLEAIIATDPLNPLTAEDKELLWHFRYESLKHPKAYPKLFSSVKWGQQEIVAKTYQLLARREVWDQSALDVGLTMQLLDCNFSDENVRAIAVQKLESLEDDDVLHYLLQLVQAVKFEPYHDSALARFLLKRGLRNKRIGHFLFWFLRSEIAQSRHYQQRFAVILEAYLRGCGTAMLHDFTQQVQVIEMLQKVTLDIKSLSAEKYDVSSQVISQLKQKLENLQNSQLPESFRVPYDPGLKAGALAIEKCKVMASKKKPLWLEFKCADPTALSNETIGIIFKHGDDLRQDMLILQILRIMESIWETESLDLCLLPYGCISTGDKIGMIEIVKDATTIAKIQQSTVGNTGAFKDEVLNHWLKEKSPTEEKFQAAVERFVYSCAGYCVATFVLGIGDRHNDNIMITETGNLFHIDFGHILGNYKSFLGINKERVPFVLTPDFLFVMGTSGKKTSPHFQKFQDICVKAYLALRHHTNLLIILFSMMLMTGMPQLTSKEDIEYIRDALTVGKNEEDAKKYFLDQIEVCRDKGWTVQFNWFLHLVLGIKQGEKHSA

IC50 [nM] | Structure (SMILES)
455 | CNC(=O)c1ccc(-c2ccc3ncc4c(c3c2)n(-c2cccnc2C)c(=O)n4C)cc1 [Example 2.4, N-Methyl-4-[3-methyl-1-(2-methyl-pyridin-3-yl)-2-oxo-2,3-dihydro-1H-imidazo[4,5-c]quinolin-8-yl]-benzamide]
361 | Cc1ncccc1-n1c(=O)n(C)c2cnc3ccc(-c4cnc5[nH]ccc5c4)cc3c21 [Example 2.8, 3-Methyl-1-(2-methyl-pyridin-3-yl)-8-(1H-pyrrolo[2,3-b]pyridin-5-yl)-1,3-dihydro-imidazo[4,5-c]quinolin-2-one]
464 | Cn1c(=O)n(-c2cccnc2F)c2c3cc(-c4cnc5[nH]ccc5c4)ccc3ncc21 [Example 6.3, 1-(2-Fluoro-pyridin-3-yl)-3-methyl-8-(1H-pyrrolo[2,3-b]pyridin-5-yl)-1,3-dihydro-imidazo[4,5-c]quinolin-2-one]
